The source of these data is patent US7235531B2, “Tachykinin-like polypeptides and use thereof” (Takeda Pharmaceutical Company, priority 1999, dated 2007).

No end group written: not given here.

For test [1], the system named is guinea pig ileum specimens. Kind of test: Contracting activity of ATT(35-45) on guinea pig ileum specimens. The class given is cell-based. The conditions noted are these: 10^−10 M to 3×10^−7 M. The procedure:
The horizontal axis in the figure represents the dose (M) of ATT(35-45), and the vertical axis represents the rate of contraction relative to the contraction of the guinea pig ileum specimens induced by 10^-6 M acetylcholine.
The contracting activity of ATT(35-45) on guinea pig ileum specimens was determined in the following manner. 13 to 15-week old male guinea pigs (std: Hartley) were exsanguinated, and the ileum was excised. The ileum was cut to a length of 1.5 cm to prepare specimens. The specimens were aerated with a gas mixture (95% O^2-5% CO2) while suspended in Tyrode's solution (137.9 mM NaCl, 2.7 mM KCl, 1.8 mM CaCl2, 0.5 mM MgCl2, 1.1 mM NaH2PO4, 11.9 mM NaHCO3, and 5.6 mM glucose) maintained at 37° C., and the isotonic contractions under a 0.5 g load were recorded. The peptide was administered cumulatively in the organ bath.

The test system of the next test is anesthetized rats. Kind of test: Activity of ATT(35-45) on blood pressure in anesthetized rats. The class given is in vivo, Male Wistar rats. The conditions noted are these: for decrease in blood pressure: left femoral vein (i.v.), n=4, mean±standard deviation. The protocol:
The activity of ATT(35-45) on blood pressure in anesthetized rats was determined in the following manner. Male Wistar rats (weighing 300 to 400 g, by CLEA Japan Inc.) were anesthetized with thiobutabarbital sodium (100 mg/kg i.p.), a catheter (SP-55) for measuring blood pressure connected to a transducer was inserted into the left carotid artery, and a catheter (SP-35) for intravenous administration was inserted into the left femoral vein. The peptide was dissolved in physiological saline containing 0.05% BSA, and doses of 0.01, 0.1, and 1 nmol/kg were administered through the left femoral vein. The blood pressure was continuously recorded on a polygraph (NEC Sanei).

For “TGKASQFFGLM-NH2 [ATT(35-45), Thr-Gly-Lys-Ala-Ser-Gln-Phe-Phe-Gly-Leu-Met-NH2]”, the “contraction of guinea pig ileum specimens (in words)” value in test [1] is “concentration-dependent contraction”. The “maximum contraction relative to the contraction induced with 10^−6 M acetylcholine” value in test [1] (guinea pig ileum) is reported as “about 90%”. The “decrease in blood pressure” value in the test on anesthetized rats (0.01 nmol/kg) worked out at 12.3±0.8 mmHg; with anesthetized rats (0.1 nmol/kg), 21.5±1.8 mmHg; in the test on anesthetized rats (1 nmol/kg) it was 33.8±6.6 mmHg. In addition, in the test on anesthetized rats (doses of 0.01, 0.1 and 1 nmol/kg i.v.), the “effect on blood pressure (in words)” value is “dose-dependent decreases in blood pressure”.
